This is an account of results in PMC10144134, “Characterization of Potent ABCG2 Inhibitor Derived from Chromone: From the Mechanism of Inhibition to Human Extracellular Vesicles for Drug Delivery” (Pharmaceutics, 2023).

A short description of one series: Water solubility. It counts as physicochemical. As to conditions: aqueous.
A further series concerns the target T1, ABCG2 (Homo sapiens, UniProt Q9UNQ0).
T1 sequence (Q9UNQ0 1-655): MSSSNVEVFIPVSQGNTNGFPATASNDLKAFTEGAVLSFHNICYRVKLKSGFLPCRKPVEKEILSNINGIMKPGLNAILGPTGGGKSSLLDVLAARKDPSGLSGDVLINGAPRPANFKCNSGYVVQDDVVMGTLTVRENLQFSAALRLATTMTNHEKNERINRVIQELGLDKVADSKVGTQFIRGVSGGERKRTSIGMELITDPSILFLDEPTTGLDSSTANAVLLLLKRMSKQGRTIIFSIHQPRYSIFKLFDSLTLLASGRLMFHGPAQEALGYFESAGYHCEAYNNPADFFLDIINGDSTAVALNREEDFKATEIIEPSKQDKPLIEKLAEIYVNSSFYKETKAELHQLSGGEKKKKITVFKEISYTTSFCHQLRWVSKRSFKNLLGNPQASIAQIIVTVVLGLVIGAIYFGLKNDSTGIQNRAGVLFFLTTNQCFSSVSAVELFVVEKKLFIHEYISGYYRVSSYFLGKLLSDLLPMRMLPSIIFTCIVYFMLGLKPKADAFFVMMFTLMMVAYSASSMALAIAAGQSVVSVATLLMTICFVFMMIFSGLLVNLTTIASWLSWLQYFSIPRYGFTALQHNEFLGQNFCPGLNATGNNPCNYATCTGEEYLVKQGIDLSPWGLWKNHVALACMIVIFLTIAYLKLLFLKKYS
Also noted: expressed in transfected cells; host or cells: HEK293 (stably transfected, G418 selection; gift of Dr. Attilio Di Pietro). As to conditions: read-out: IC50 of ABCG2 inhibition; cited from earlier work.

Series [1] relates to implanted ABCG2-positive tumors. The note with it: cited from earlier work.
Details of series [2]: method as in PMID 17317193. The note with it: cited from earlier work.
For a further series, the system named is HEK293 WT cells. Nature of the series: MTT cell viability, HEK293 WT. As to conditions: SN38 10 nM, 72 h. It is filed as cell-based, human. The method, then: (§1) HEK293 WT (wild type) and HEK293-ABCG2 cells were seeded (2.5 × 10^4 cell/well) into a 96-well plate and incubated for 24 h. Cells were concomitantly treated with EVs […]C4a (0.1, 1 and 10 μM) and SN-38 (10 nM) for 72 h. After this period, the medium was removed, cells were washed with PBS (100 μL) and incubated with MTT solution (100 μL of solution 0.5 mg/mL in PBS) for 4 h. Then, the solution was removed, and the formazan crystals were dissolved with 100 μL of ethanol/DMSO (1:1). The absorbance was measured using a microplate reader at 595 nm (Bio-Rad iMark, Hercules, CA, USA).

Another series relates to HEK293-ABCG2 cells. The series can be described thus: MTT chemosensitization assay, HEK293-ABCG2. It is filed as cell-based, human. As to conditions: SN38 10 nM, 72 h, MTT. The method, then: as §1
On the technique in general: Formazan colour is commonly taken as a measure of viable cells.

For the compound `COc1ccc2[nH]cc(CCNC(=O)c3cc(=O)c4c(OCc5ccc(Br)cc5)cccc4o3)c2c1` [MBL-II-141], the solubility result in “Water solubility” is on record as “low solubility”. Moreover, the IC50 at ABCG2 is 260 nM. The “growth of implanted ABCG2-positive tumors in mice” value in series [1] (in combination with irinotecan) is “inhibiting the growth of implanted ABCG2-positive tumors”.

With `COc1ccc2c(=O)c3cccc(C(=O)NCc4ccc(OC)c(OC)c4)c3[nH]c2c1` [MBLI-87], the cytotoxicity result in series [2] is given as “low cytotoxicity”. At ABCG2, the IC50 is 450 nM. Besides, the “sensitization of xenografic tumors overexpressing ABCG2 to irinotecan” value in series [1] is reported as “successfully sensitized xenografic tumors overexpressing ABCG2 to irinotecan”.

`CCc1c2c(nc3ccc(O)cc13)-c1cc3c(c(=O)n1C2)COC(=O)[C@]3(O)CC` [SN38, reference compound]: the “cytotoxic effect on wild-type HEK293 cells” value in the series with HEK293 WT cells is listed as “highly cytotoxic”. The “cell viability of cells overexpressing ABCG2” value in the series with HEK293-ABCG2 cells is given as “mild decrease in the cell viability”.

The term IC50 denotes the point on the concentration scale where inhibition reaches its midpoint.
